# Reference: US10189836B2, “Therapeutic compounds, compositions and methods of use thereof” (Genentech, Inc., priority 2015, dated 2019)
# How the values were obtained:
# [1] = target: isolated recombinant JAK1 kinase domain (Homo sapiens (Human), UniProt P23458); assay: JAK1 enzyme assay (Caliper LabChip, Ki); type: biochemical; conditions: isolated recombinant JAK1 kinase domain, 1.5 nM enzyme, ATP 25 μM
# [2] = target: isolated recombinant JAK2 kinase domain (Homo sapiens (Human), UniProt O60674); assay: JAK2 enzyme assay (Caliper LabChip, Ki); type: biochemical; conditions: isolated recombinant JAK2 kinase domain, 0.2 nM enzyme, ATP 25 μM
# Chain of isolated recombinant JAK2 kinase domain (O60674 849-1124): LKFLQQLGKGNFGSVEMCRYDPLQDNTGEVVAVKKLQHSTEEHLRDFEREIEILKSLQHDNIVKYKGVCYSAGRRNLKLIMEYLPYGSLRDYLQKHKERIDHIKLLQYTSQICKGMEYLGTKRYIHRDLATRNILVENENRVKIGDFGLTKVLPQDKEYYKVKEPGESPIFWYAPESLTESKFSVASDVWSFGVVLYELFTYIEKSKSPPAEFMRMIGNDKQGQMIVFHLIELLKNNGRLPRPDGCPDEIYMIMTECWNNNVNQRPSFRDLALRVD
# Chain of isolated recombinant JAK1 kinase domain (P23458 875-1153): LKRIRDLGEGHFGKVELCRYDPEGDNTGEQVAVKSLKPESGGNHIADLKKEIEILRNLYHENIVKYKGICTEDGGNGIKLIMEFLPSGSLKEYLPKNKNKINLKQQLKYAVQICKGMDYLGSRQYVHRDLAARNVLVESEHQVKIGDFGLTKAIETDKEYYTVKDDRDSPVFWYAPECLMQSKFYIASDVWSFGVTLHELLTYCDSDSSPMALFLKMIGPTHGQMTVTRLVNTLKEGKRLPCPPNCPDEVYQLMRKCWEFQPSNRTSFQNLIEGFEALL
SMILES,Ki [1] [nM],Ki [2] [nM]
"CN1CCN(C(=O)Cn2cc(Nc3nc4c(N5CC6CCC(C5)N6C(=O)c5cccc(Cl)c5)cccn4n3)cn2)CC1 [Example 90, 2-[4-[[8-[8-(3-chlorobenzoyl)-3,8-diazabicyclo[3.2.1]octan-3-yl]-[1,2,4]triazolo[1,5-a]pyridin-2-yl]amino]pyrazol-1-yl]-1-(4-methylpiperazin-1-yl)ethanone]",0.8,2.3
"CN1CCN(C(=O)Cn2cc(Nc3nc4c(N5C[C@H]6CC[C@@H](C5)[C@H]6OCc5ccc(C#N)cc5)cccn4n3)cn2)CC1 [Example 128, 4-[[(1S,5R)-3-[2-[[1-[2-(4-methylpiperazin-1-yl)-2-oxo-ethyl]pyrazol-4-yl]amino]-[1,2,4]triazolo[1,5-a]pyridin-8-yl]-3-azabicyclo[3.2.1]octan-8-yl]oxymethyl]benzonitrile]",0.4,1
"CN1CCN(C(=O)Cn2cc(Nc3nc4c(N5C[C@H]6CC[C@@H](C5)[C@H]6N(C)CCC(F)(F)F)cccn4n3)cn2)CC1 [Example 127, 1-(4-methylpiperazin-1-yl)-2-[4-[[8-[(1S,5R)-8-[methyl(3,3,3-trifluoropropyl)amino]-3-azabicyclo[3.2.1]octan-3-yl]-[1,2,4]triazolo[1,5-a]pyridin-2-yl]amino]pyrazol-1-yl]ethanone]",4.6,11.5
"CN(CC1(C#N)CC1)C1CCN(C(=O)Cn2cc(Nc3nc4c(N5CC6CCC(C5)N6C(=O)C5CC(C(F)(F)F)C5)cccn4n3)cn2)CC1 (stereo not shown) [Example 193, 1-[[methyl-[1-[2-[4-[[8-[8-[3-(trifluoromethyl)cyclobutanecarbonyl]-3,8-diazabicyclo[3.2.1]octan-3-yl]-[1,2,4]triazolo[1,5-a]pyridin-2-yl]amino]pyrazol-1-yl]acetyl]-4-piperidyl]amino]methyl]-cyclopropanecarbonitrile]",0.6,0.7
"CN1CCN(C(=O)Cn2cc(Nc3nc4c(N5CC6CCC(C5)N6C(=O)C5(C#N)CCC5)cccn4n3)cn2)CC1 [Example 116, 1-[3-[2-[[1-[2-(4-methylpiperazin-1-yl)-2-oxo-ethyl]pyrazol-4-yl]amino]-[1,2,4]triazolo[1,5-a]pyridin-8-yl]-3,8-diazabicyclo[3.2.1]octane-8-carbonyl]cyclobutane-carbonitrile]",2.5,3.5
"CN1CCN(C(=O)Cn2cc(Nc3nc4c(N5CC6CCC(C5)C6C(=O)N5CC(C(F)(F)F)C5)cccn4n3)cn2)CC1 (stereo not shown) [Example 43, 1-(4-methylpiperazin-1-yl)-2-(4-[[8-(8-[[3-(trifluoromethyl)azetidin-1-yl]carbonyl]-3-azabicyclo[3.2.1]octan-3-yl)-[1,2,4]triazolo[1,5-a]pyridin-2-yl]amino]-1H-pyrazol-1-yl)ethan-1-one]",1.1,1.9
"CC(C(=O)N1CCN(C)CC1)n1cc(Nc2nc3c(N4CC5CCC(C4)N5C(=O)C4CC(C(F)(F)F)C4)cccn3n2)cn1 (stereo not shown) [Example 123, 1-(4-methylpiperazin-1-yl)-2-[4-[[8-[8-(3-(trifluoromethyl)-cyclobutanecarbonyl]-3,8-diazabicyclo[3.2.1]octan-3-yl]-[1,2,4]triazolo[1,5-a]pyridin-2-yl]amino]pyrazol-1-yl]propan-1-one]",0.5,0.5
"CN1CCN(C(=O)Cn2cc(Nc3nc4c(N5CC6CCC(C5)N6C(=O)C5CCC(F)(F)C5)cccn4n3)cn2)CC1 (stereo not shown) [Example 58, 2-[4-[[8-[8-(3,3-difluorocyclopentanecarbonyl)-3,8-diazabicyclo[3.2.1]octan-3-yl]-[1,2,4]triazolo[1,5-a]pyridin-2-yl]amino]pyrazol-1-yl]-1-(4-methylpiperazin-1-yl)ethanone]",1.6,2.5
CN1CCN(C(=O)Cn2cc(Nc3nc4c(N5CC6CCC(C5)N6C(=O)c5ccccc5Cl)cccn4n3)cn2)CC1 [Example 114],1.7,4.8
"O=C(Cn1cc(Nc2nc3c(N4CC5CCC(C4)N5C(=O)CCC(F)(F)F)cccn3n2)cn1)N1CCC(N2CCOCC2)CC1 [Example 74, 4,4,4-trifluoro-1-[3-[2-[[1-[2-(4-morpholino-1-piperidyl)-2-oxo-ethyl]pyrazol-4-yl]amino]-[1,2,4]triazolo[1,5-a]pyridin-8-yl]-3,8-diazabicyclo[3.2.1]octan-8-yl]butan-1-one]",1,2.7
"CN1CCN(C(=O)Cn2cc(Nc3nc4c(N5CC6CCC(C5)N6S(=O)(=O)c5cccc(C#N)c5)cccn4n3)cn2)CC1 [Example 143, 3-[[3-[2-[[1-[2-(4-methylpiperazin-1-yl)-2-oxo-ethyl]pyraol-4-yl]amino]-[1,2,4]triazolo[1,5-a]pyridin-8-yl]-3,8-diazabicyclo[3.2.1]octan-8-yl]sulfonyl]benzonitrile]",0.5,1.1
"CSC1CN(C(=O)N2C3CCC2CN(c2cccn4nc(Nc5cnn(CC(=O)N6CCN(C)CC6)c5)nc24)C3)C1 [Example 171, 1-(4-methylpiperazin-1-yl)-2-[4-[[8-[8-(3-methylsulfanylazetidine-1-carbonyl)-3,8-diazabicyclo[3.2.1]octan-3-yl]-[1,2,4]triazolo[1,5-a]pyridin-2-yl]amino]pyrazol-1-yl]ethanone]",1.3,2.9
"CN1CCN(C(=O)Cn2cc(Nc3nc4c(N5CC6CCC(C5)N6S(=O)(=O)C5CC5)cccn4n3)cn2)CC1 [Example 177, 2-[4-[[8-(8-cyclopropylsulfonyl-3,8-diazabicyclo[3.2.1]octan-3-yl)-[1,2,4]triazolo[1,5-a]pyridin-2-yl]amino]pyrazol-1-yl]-1-(4-methylpiperazin-1-yl)ethanone]",2.1,7.5
"CN1CCN(C(=O)Cn2cc(Nc3nc4c(N5CC6CCC(C5)N6Cc5ccc(C#N)cc5)cccn4n3)cn2)CC1 [Example 56, 4-[[3-[2-[[1-[2-(4-methylpiperazin-1-yl)-2-oxo-ethyl]pyrazol-4-yl]amino]-[1,2,4]triazolo[1,5-a]pyridin-8-yl]-3,8-diazabicyclo[3.2.1]octan-8-yl]methyl]benzonitrile]",1.4,5.1
"O=C(Cn1cc(Nc2nc3c(N4CC5CCC(C4)N5C(=O)N4CC(C(F)(F)F)C4)cccn3n2)cn1)N1CCC(N2CCOCC2)CC1 [Example 44, 1-(4-morpholino-1-piperidyl)-2-[4-[[8-[8-[3-(trifluoromethyl)azetidine-1-carbonyl]-3,8-diazabicyclo[3.2.1]octan-3-yl]-[1,2,4]triazolo[1,5-a]pyridin-2-yl]amino]pyrazol-1-yl]ethanone]",0.9,0.6
"CN1CCN(C(=O)Cn2cc(Nc3nc4c(N5CC6CCC(C5)N6S(=O)(=O)c5ccc(C(F)(F)F)cc5)cccn4n3)cn2)CC1 [Example 135, 1-(4-methylpiperazin-1-yl)-2-[4-[[8-[8-(4-(trifluoromethyl)phenyl]sulfonyl-3,8-diazabicyclo[3.2.1]octan-3-yl]-[1,2,4]triazolo[1,5-a]pyridin-2-yl]amino]pyrazol-1-yl]ethanone]",0.2,0.4
"CN1CCN(C(=O)Cn2cc(Nc3nc4c(N5CC6CCC(C5)N6S(=O)(=O)Cc5ccccc5Cl)cccn4n3)cn2)CC1 [Example 161, 2-[4-[[8-[8-[(2-chlorophenyl)methylsulfonyl]-3,8-diazabicyclo[3.2.1]octan-3-yl]-[1,2,4]triazolo[1,5-a]pyridin-2-yl]amino]pyrazol-1-yl]-1-(4-methylpiperazin-1-yl)ethanone]",0.6,0.7
"CN1CCN(C(=O)Cn2cc(Nc3nc4c(N5CC6CCC(C5)N6S(=O)(=O)c5ccc(F)cc5)cccn4n3)cn2)CC1 [Example 134, 2-[4-[[8-[8-(4-fluorophenyl)sulfonyl-3,8-diazabicyclo[3.2.1]octan-3-yl]-[1,2,4]triazolo[1,5-a]pyridin-2-yl]amino]pyrazol-1-yl]-1-(4-methylpiperazin-1-yl)ethanone]",0.4,0.5
"COC(=O)N1CCN(CC2CCN(C(=O)Cn3cc(Nc4nc5c(N6CC7CCC(C6)N7C(=O)CCC(F)(F)F)cccn5n4)cn3)CC2)CC1 [Example 79, methyl 4-[[1-[2-[4-[[8-[8-(4,4,4-trifluorobutanoyl)-3,8-diazabicyclo[3.2.1]octan-3-yl]-[1,2,4]triazolo[1,5-a]pyridin-2-yl]amino]pyrazol-1-yl]acetyl]-4-piperidyl]methyl]piperazine-1-carboxylate]",0.8,1.6
"CN1CCN(C(=O)Cn2cc(Nc3nc4c(N5CC6CCC(C5)N6S(=O)(=O)Cc5ccccc5)cccn4n3)cn2)CC1 [Example 108, 2-[4-[[8-(8-benzylsulfonyl-3,8-diazabicyclo[3.2.1]octan-3-yl)-[1,2,4]triazolo[1,5-a]pyridin-2-yl]amino]pyrazol-1-yl]-1-(4-methylpiperazin-1-yl)ethanone]",1,2.7
"CC(F)(F)CNC1CCN(C(=O)Cn2cc(Nc3nc4c(N5CC6CCC(C5)N6C(=O)N5CC(C(F)(F)F)C5)cccn4n3)cn2)CC1 [Example 120, 1-[4-(2,2-difluoropropylamino)-1-piperidyl]-2-[4-[[8-[8-[3-(trifluoromethyl)azetidine-1-carbonyl]-3,8-diazabicyclo[3.2.1]octan-3-yl]-[1,2,4]triazolo[1,5-a]pyridin-2-yl]amino]pyrazol-1-yl]ethanone]",0.6,0.7
"CN1CCN(C(=O)Cn2cc(Nc3nc4c(N5CC6CCC(C5)N6C(=O)COC(F)(F)F)cccn4n3)cn2)CC1 [Example 54, 1-(4-methylpiperazin-1-yl)-2-[4-[[8-[8-[2-(trifluoromethoxy)acetyl]-3,8-diazabicyclo[3.2.1]octan-3-yl]-[1,2,4]triazolo[1,5-a]pyridin-2-yl]amino]pyrazol-1-yl]ethanone]",1.6,4.9
"CN1CCN(C(=O)Cn2cc(Nc3nc4c(N5CC6CCCC(C5)N6C(=O)[C@H]5C[C@H](C(F)(F)F)C5)cccn4n3)cn2)CC1 [Example 40, 1-(4-methylpiperazin-1-yl)-2-[4-[[8-[9-[3-(trifluoromethyl)cyclobutanecarbonyl]-3,9-diazabicyclo[3.3.1]nonan-3-yl]-[1,2,4]triazolo[1,5-a]pyridin-2-yl]amino]pyrazol-1-yl]ethanone]",0.6,0.6
